Data on nine compounds can be found in patent US4731381A, “Method of treating a person for sickle cell anemia” (Merck & Co., Inc., priority 1986, dated 1988).

One data set has as its target sickle hemoglobin (HbS) (Homo sapiens, UniProt P68871+P69905, E7V). The experiment in a line: solubility assay (Csat assay) of sickle hemoglobin. Format: biochemical. The settings on record: for activation at 3000 µM: 3 mM; for activation at 3000 µM / activation at 5000 µM / activation at 7000 µM / activation at 9000 µM: read-out: % increase in Solubility of HbS; for activation at 7000 µM: 7 mM; for activation at 9000 µM: 9 mM. The text has this: One major assay for evaluating antisickling agents involves measuring their effect on increasing the concentration at which sickle hemoglobin forms a gel. This is called the solubility or Csat assay.
The solubility assay (Csat assay) measures the ability of a compound to increase solubility of sickle hemoglobin (HbS). […] The higher the ratio, the higher the activity of the compound.
In order to confirm the effectiveness of these compounds in reducing the effect of sickle cell anemia, tests were performed. The materials were tested according to the assay (Csat) developed by Hofrichter et al. (J. Hofrichter, P. D. Ross and W. A. Eaton, Proc. Natl. Acad. Sci., U.S.A. 73, 30-35, 1976). This assay involves deoxygenation of concentrated sickle hemoglobin with dithionite in the presence of different concentrations of the drugs being tested. Samples are then sealed in quartz epr tubes under anaerobic conditions and spun at about 150,000 g for about 21/2 hours at about 35° C. in an ultracentrifuge. This procedure pellets the polymerized HbS (sickle hemoglobin) to the bottom of the tubes and the supernatant (soluble HbS) is measured in the laboratory as the cyanmethemoglobulin derivative. […] Activity is reported as a ratio of the HbS solubility with the particular drug to HbS solubility with no drug, i.e. control. The higher the ratio the greater degree of activity of the drug. The numbers in parenthesis are the percent increase in solubility of HbS; again, the higher the number, the greater the activity. The results of representative compounds from the Examples are shown in Table I as typical of the compounds of the invention.

Another data set has as its system HbS. The experiment in a line: chromatographic separation, covalent binding between HbS and the agent.
The test system of the next data set is erythrocyte membranes. The experiment in a line: tests of transport across erythrocyte membranes. Format: in vitro ADME.

Molecules are shown by their SMILES. Where a name gives a salt, the structure may show the parent alone.

Consider `C=C(CC)C(=O)c1ccc(OC2(C(=O)O)CCC2)c(Cl)c1Cl` [Example 6, 1-[2,3-dichloro-4-(2-methylenebutyryl)phenoxy]cyclobutane-1-carboxylic acid], for which, at sickle hemoglobin (HbS), the activation at 3000 µM came to 19%, the activation at 7000 µM was 34% and the activation at 9000 µM turned out to be 48%. The activation at 5000 µM on sickle hemoglobin (HbS) (5 mM) was found to be 30%.
The like results for `C=C(CC)C(=O)c1ccc(OCCCCC(=O)O)c(Cl)c1Cl` [Example 4, 5-[2,3-dichloro-4-(2-methylenebutyryl)phenoxy]valeric acid] were, in that order, 21%, 52%, 80% and 34%.
In the same order, the values of `C=C(CCC)C(=O)c1ccc(OCCCC(=O)O)c(Cl)c1Cl` [Example 3, 4-[2,3-dichloro-4-(2-methylenevaleryl)phenoxy]butyric acid] are 18%, 46%, 51% and 37%.
Take `C=C(CC)C(=O)c1ccc(OC(C)(C)C(=O)O)c(Cl)c1Cl` [Example 8, 2-[2,3-dichloro-4-(2-methylenebutyryl)phenoxy]-2-methylpropionic acid]: at sickle hemoglobin (HbS), the activation at 3000 µM worked out at 11%, the activation at 7000 µM turned out to be 41% and the activation at 9000 µM stood at 53%. The activation at 5000 µM at sickle hemoglobin (HbS) (5 mM) stood at 21%.
Regarding `C=C(CC)C(=O)c1ccc(OCCCC(=O)O)c(Cl)c1Cl` [sodium salt of 4-[2,3-dichloro-4-(2-methylenebutyryl)phenoxy]butyric acid], at sickle hemoglobin (HbS) (5 mM, sodium salt), the “solubility ratio (Csat assay) compared with other antisickling agents, in words” value is “higher solubility ratio than other antisickling agents, such as, dichlorobenzyloxyacetic and p-bromobenzyloxyacetic acids”. Moreover, the “covalent binding between HbS and the therapeutic agent, in words” value in the data set with HbS was “tight covalent binding between the HbS and the therapeutic agent had occurred”. Besides, the “ability to cross the red blood cell membrane, in words” value in the data set with erythrocyte membranes was “cross the red blood cell membrane and react with hemoglobin”.
For `C=C(CC)C(=O)c1ccc(OCCCCCC(=O)O)c(Cl)c1Cl` [Example 5, 6-[2,3-dichloro-4-(2-methylenebutyryl)phenoxy]hexanoic acid], at sickle hemoglobin (HbS), the activation at 3000 µM turned out to be 13%, the activation at 7000 µM was found to be 26% and the activation at 9000 µM was determined as 35%. The activation at 5000 µM at sickle hemoglobin (HbS) (5 mM) came to 18%.
In the same order, the values of `C=C(CCC)C(=O)c1ccc(OC2(C(=O)O)CCC2)c(Cl)c1Cl` [Example 7, 1-[2,3-dichloro-4-(2-methylenevaleryl)phenoxy]cyclobutane-1-carboxylic acid] are 14%, 26%, 39% and 30%.
The like results for `C=C(CC)C(=O)c1ccc(OCCC(=O)O)c(Cl)c1Cl` [Example 1, 3-[2,3-dichloro-4-(2-methylenebutyryl)phenoxy]propionic acid] were, in that order, 26%, 43%, 69% and 33%.
In the same order, the values of `C=C(CC)C(=O)c1ccc(OCCCC(=O)O)c(Cl)c1Cl` [Example 2, 4-[2,3-dichloro-4-(2-methylenebutyryl)phenoxy]butyric acid] are 22%, 37%, 46% and 27%.
